Assay results published in US5491135A (priority 1993, dated 1996).
In brackets after ≈: the same amount, converted by molar mass. Several values for one entry are separate records, joined by “and”; a condition that tells them apart may be missing. Identical values can stand only once. Entries after “also recorded” stand apart in the source; their conditions may differ. Like-named read-outs stand apart in the source and are kept apart here.

Columns and labels:
Coxsackie B3 = assay: In vitro antiviral assay; format: cell-based
humoral immune response = conditions: tumor bearing animals; cited from earlier work
Herpes-1 = assay: In vitro antiviral assay; format: cell-based; conditions: Vero
Sandfly fever virus [1] = assay: microbe, parasite or virus in culture; conditions: sandfly fever Sicilian virus, Vero
Sandfly fever virus [2] = conditions: Vero
Paramyxo-3 = assay: In vitro antiviral assay; format: cell-based
[3] = test system: respiratory syncytial virus (RSV); assay: RSV infection in cotton rats, lung titre; format: in vivo, cotton rat; conditions: for RSV lung titre: individual animal
Description: 1. 50 to 100 g cotton rats of either sex inoculated i.n. with RS A2 (pool 8-28-92) on day 0.
2. On day +1 animals were given placebo or PALA as follows:
3. All animals killed on day +4 and their lungs tested for RSV levels.

Vero cells = conditions: uninfected
CMV = assay: In vitro antiviral assay; format: cell-based
[4] = test system: duck hepatitis B virus (DHBV); assay: Duck hepatitis B (DHBV) in primary duck hepatocyte culture; format: cell-based
Method: Using the duck hepatitis model (DHBV), primary duck hepatocyte cells were treated with various concentrations of PALA (disodium salt) and evaluated for cytopathic effect. In addition, viral DNA replication was assessed using "slot" dot blots. […] These experiments were performed three times with confirmatory results.

Punta toro virus = conditions: Vero
herpes virus-2 = assay: In vitro antiviral assay; format: cell-based
[5] = Cytotoxicity in Hep-2 cells; conditions: human
in vitro = conditions: human, cem cells
Vaccinia virus [6] = assay: microbe, parasite or virus in culture; format: cell-based, vaccinia virus (Lederle vaccine); conditions: Vero
[7] = test system: L-aspartic acid transcarbamylase (ATCase); conditions: cited from earlier work
herpesvirus = conditions: less effective by a factor; cited from earlier work
Yellow fever virus = conditions: Vero
[8] = test system: Japanese encephalitis virus; conditions: Vero; 50% inhibition
[9] = used alone; cited from earlier work
vaccinia virus [10] = conditions: for Vaccinia Lesion Score: per monkey
HIV-1 = assay: In vitro antiviral MTT CPE assay; format: cell-based
[11] = day 8, PALA 125 mg/kg day 1 & 7
[12] = day 10, PALA 125 mg/kg day 1 & 7
[13] = day 10, PALA 50, rifampicin 10 mg/kg/d or both
[14] = day 13, PALA 125 mg/kg day 1 & 7
[15] = day 13, PALA 50, rifampicin 10 mg/kg/d or both

O=C(O)C[C@H](NC(=O)CP(=O)(O)O)C(=O)O [PALA]
IC50 (Coxsackie B3; Enterovirus B, B3, Vero): ~33 µg/mL (≈ 129 µM)
TI (Coxsackie B3; Vero): 9.7
effect on humoral immune response (humoral immune response): does not appear to significantly alter humoral immune response
IC50 (Herpes-1): no inhibitory activity and None
IC50 (Sandfly fever virus [1]): 20.9 µg/mL (≈ 81.9 µM)
IC50 (Sandfly fever virus [2]): 14.9 µg/mL (≈ 58.4 µM)
TI (TC50/IC50) (Sandfly fever virus [2]; 50% inhibition): > 15.32 and > 21.54
IC50 (Paramyxo-3; HEp-2): 10 µg/mL (≈ 39.2 µM)
TI (Paramyxo-3; Hep-2): 32.0
RSV lung titre, mean (SD) ([3]; PALA 3 mg/kg/day): 3.3 (0.3) LOG10 /G Lung
RSV lung titre ([3]; PALA 3 mg/kg): 3.9 LOG10 and 3.5 LOG10 and 2.9 LOG10 and 3.0 LOG10
RSV lung titre, mean (SD) ([3]; PALA 10 mg/kg/day): 2.8 (0.5) LOG10 /G Lung
decrease of viral titre over control ([3]; PALA 10 mg/kg/day): 1 log10
RSV lung titre ([3]; PALA 10 mg/kg): 2.4 LOG10 and 2.9 LOG10 and 2.5 LOG10 and 3.5 LOG10
efficacy against RSV ([3]; i.p.): more effective than ribavirin or combinational therapy; also recorded: statistically significant efficacy; also recorded: statistically better than ribavirin; also recorded: more effective as a single agent therapy in vivo against respiratory syncytial virus than ribavirin
TC50 (Vero cells): > 320 µg/mL
TI (CMV; HFF): 32.0
IC50 (CMV; Human betaherpesvirus 5, HFF): 10 µg/mL (≈ 39.2 µM)
inhibition at 0.5 µM ([4]; Duck hepatitis B virus, Hepatocyte): 95%
toxicity ([4]; high concentrations): little or no toxicity
IC50 (Punta toro virus): 18.4 µg/mL (≈ 72.1 µM)
TI (TC50/IC50) (Punta toro virus; 50% inhibition): > 21.05 and > 17.35
TI(95) (Punta toro virus; 95% inhibition): > 10.00
inhibitory activity (herpes virus-2): no inhibitory activity
CC50 [5]: > 320 µg/mL
CC50 (in vitro): 60 µg/mL (≈ 235 µM)
IC50 (Vaccinia virus [6]; Orthopoxvirus vaccinia): 10 µg/mL (≈ 39.2 µM)
TI (Vaccinia virus [6]): 32.0
Ka, avidity relative to carbamyl phosphate [7]: 1000 ×
antiherpes effectiveness relative to parent PAA (herpesvirus): over 200
IC50 (Yellow fever virus): 13.4 µg/mL (≈ 52.5 µM)
TI (TC50/IC50) (Yellow fever virus; 50% inhibition): > 19.22 and > 23.82
TI(95) (Yellow fever virus; 95% inhibition): > 10.68 and > 10.38
TI (TC50/IC50) [8]: > 18.59 and > 18.80
clinical efficacy in cancer [9]: relatively nonefficacious
gross pathology (vaccinia virus [10]; PALA 125 mg/kg i.v. bolus): dark red discoloration of the liver
lesion development (vaccinia virus [10]; PALA 125 mg/kg, days 1 and 7): greater than what was seen in monkeys treated daily with PALA at a lower dose
virus titers in skin (vaccinia virus [10]; PALA 125 mg/kg, days 1 and 7): Higher titers
lesion development (vaccinia virus [10]; PALA 50, rifampicin 10 or both, mg/kg/day i.v.): effective in reducing lesion development and size
Weight (vaccinia virus [10]; day 0, PALA 125 mg/kg day 1 & 7): 3.2 kg and 3.4 kg and 4.4 kg
Weight (vaccinia virus [10]; day 0, PALA 50, rifampicin 10 mg/kg/d or both): 2.4 kg and 3.4 kg and 2.6 kg
Vaccinia Lesion Score, group mean (vaccinia virus [10]; day 3, PALA 125 mg/kg day 1 & 7): 0.5
Vaccinia Lesion Score, group mean (vaccinia virus [10]; day 3, PALA 50, rifampicin 10 mg/kg/d or both): 0.1
Vaccinia Lesion Score, group mean (vaccinia virus [10]; day 6, PALA 125 mg/kg day 1 & 7): 0.7
Vaccinia Lesion Score, group mean (vaccinia virus [10]; day 6, PALA 50, rifampicin 10 mg/kg/d or both): 0.6
Vaccinia Lesion Score, group mean (vaccinia virus [10]; day 7, PALA 125 mg/kg day 1 & 7): 0.9
Vaccinia Lesion Score, group mean (vaccinia virus [10]; day 7, PALA 50, rifampicin 10 mg/kg/d or both): 0.5
Vaccinia Lesion Score, group mean (vaccinia virus [10]; [11]): 1.3
Vaccinia Lesion Score (vaccinia virus [10]; [11]): 0.7 and 1.8
Vaccinia Lesion Score, group mean (vaccinia virus [10]; day 8, PALA 50, rifampicin 10 mg/kg/d or both): 0.5
Vaccinia Lesion Score, group mean (vaccinia virus [10]; day 9, PALA 125 mg/kg day 1 & 7): 1.2
Vaccinia Lesion Score, group mean (vaccinia virus [10]; day 9, PALA 50, rifampicin 10 mg/kg/d or both): 0.3
Vaccinia Lesion Score, group mean (vaccinia virus [10]; [12]): 0
Vaccinia Lesion Score (vaccinia virus [10]; [12]): 0
Vaccinia Lesion Score, group mean (vaccinia virus [10]; [13]): 0
Weight (vaccinia virus [10]; [13]): 2.2 kg and 3.2 kg and 2.4 kg
Vaccinia Lesion Score (vaccinia virus [10]; [13]): 0
Vaccinia Lesion Score, group mean (vaccinia virus [10]; [14]): 0.5
Vaccinia Lesion Score (vaccinia virus [10]; [14]): 0.3 and 0.7
Vaccinia Lesion Score, group mean (vaccinia virus [10]; [15]): 0
Vaccinia Lesion Score (vaccinia virus [10]; [15]): 0
Weight (vaccinia virus [10]; day 14, PALA 125 mg/kg day 1 & 7): 3.2 kg and 4.4 kg
Weight (vaccinia virus [10]; day 14, PALA 50, rifampicin 10 mg/kg/d or both): 2.0 kg and 3.2 kg and 2.4 kg
Weight (vaccinia virus [10]; day 21, PALA 125 mg/kg day 1 & 7): 3.4 kg and 4.2 kg
Weight (vaccinia virus [10]; day 21, PALA 50, rifampicin 10 mg/kg/d or both): 2.0 kg and 3.4 kg and 2.6 kg
signs of toxicity (vaccinia virus [10]; except one monkey at PALA 125 mg/kg bolus): No appreciable signs of toxicity
Titer of vaccinia virus in skin biopsy (vaccinia virus [10]; head prints day 6, PALA 125 mg/kg day 1 & 7): 1.3 × 10^5 PFU/ml and 1.8 × 10^10 PFU/ml
TI (HIV-1; CEM): ~ 5.0
IC50 (HIV-1; Human immunodeficiency virus 1, CCRF-CEM): 12 µg/mL (≈ 47 µM)
